Results published in patent US20050101575A1, “Vitamin d3 derivatives and remedies using the same” (priority 2003, published 2005).

The compounds below were run on HL-60 cell (assay: Vitamin D3 antagonist effect: suppression of HL-60 cell differentiation induced by 1α,25-dihydroxyvitamin D3 (NBT reduction activity)). Conditions: Homo sapiens, HL-60, 96 h, simultaneous treatment with 1α,25-dihydroxyvitamin D3 (1×10^−8 M); compound 1×10^−9 to 1×10^−6 M; 4 days at 37° C.; read-out: IC50 (nM), suppression of NBT reduction activity induction in HL-60 cell.
Assay type: cell-based
Description: (1) HL-60 cell line which had been purchased from a cell bank (Japanese Cancer Research Resource Bank, Cell No: JCRB0085) was used. The cell line was stored as a frozen storage stock to prevent the change of cell characteristics attributable to successive cultivations. Prior to the initiation of experiments, the cells were defrosted and successive culturing was stared. For the experiments, cells whose successive culturing was from one month to about a half year were used. The successive culturing was carried out by centrifugally collecting cells which were in the state of suspension culture, and diluting the collected cell concentrate with a fresh culture medium at a ratio of about 1/100 (1-2×10^4 cells/ml). As the culture medium, an RPMI-1640 medium containing 10% fetal bovine serum was used.
The cells which were under successive culturing in the above process (1) were centrifugally collected, and they were dispersed in a culture medium at the cell concentration of 2×10^4 cells/ml. The dispersion was seeded into a 24-well culture schale at 1 ml/well. […] As the control, ethanol was added at 1 μl/well. After culturing at 37° C. for 4 days in the presence of 5% CO2, the cells were centrifugally collected.
(3) As the parameter of differentiation inducing effect on HL-60 cells, the induction of nitroblue tetrazonium (henceforth, NBT) reduction activity was used. The NBT reduction activity was determined according to the following procedure. That is, centrifugally collected cells were suspended in a fresh culture medium, and subsequently NBT and 12-O-tetradecanoylphorbol-13-acetate were added in such a manner that their concentrations became 0.1% and 100 ng/ml, respectively. After the mixed suspension was incubated at 37° C. for 25 min, a cytospin specimen was prepared. After air drying, it was stained with Kernechtrot, and the ratio of the positive cells of NBT reduction activity was determined under an optical microscope. Percentage ratios of the positive cell ratio in a simultaneous treatment with 1 α,25-dihydroxyvitamin D3 (1×10^−8 M) and a compound of the present invention at various treating concentrations (1×10^−9 to 1×10^−6 M) to that in a single treatment with 1 α,25-dihydroxyvitamin D3 (1×10^−8 M) were plotted against treating concentrations of the compound of the present invention, and the treating concentration of the compound of the present invention at which the percentage ratio became 50% was determined as IC50 value (nM).
`C=C1CC(/C=C/[C@@H](C)[C@H]2CC[C@H]3/C(=C/C=C4/C[C@@H](O)C[C@H](O)C4=C)CCC[C@]23C)OC1=O` (some centres unmarked) [Compound No. 31b] showed an IC50 of under 50 nM.
`C=C1C[C@H](C[C@@H](C)[C@H]2CC[C@H]3/C(=C/C=C4/C[C@@H](O)[C@H](C)[C@H](O)C4=C)CCC[C@]23C)OC1=O` [Compound No. 22d, 2(S)-methyl-20(R)-(tetrahydro-3-vinylidene-2-furanon-5-(S)-yl)methyl-9,10-s ecopregna-5(Z),7(E),10(19)-triene-1(S),3(R)-diol] showed an IC50 of under 50 nM.
Compound `C=C1C[C@H](C[C@@H](C)[C@H]2CC[C@H]3/C(=C/C=C4/C[C@H](O)[C@H](C)[C@H](O)C4=C)CCC[C@]23C)OC1=O` [Compound No. 22b, 2(S)-methyl-20(R)-(tetrahydro-3-vinylidene-2-furanon-5-(S)-yl)methyl-9,10-s ecopregna-5(Z),7(E), 10(19)-triene-1(S),3(S)-diol] has an IC50 of under 50 nM.
For `C=C1CC(/C=C/[C@@H](C)[C@H]2CC[C@H]3/C(=C/C=C4/C[C@@H](O)[C@H](C)[C@H](O)C4=C)CCC[C@]23C)OC1=O` (stereo partly drawn) [Compound No. 32a, 2(S)-methyl-20(R)-(2-(tetrahydro-3-vinylidene-2-furanon-5-yl)-1(E)-ethenyl)-9,10-secopregna-5(Z), 7(E), 10(19)-triene-1(S), 3(R)-diol], the IC50 was under 50 nM.
`C=C1CC([C@@H](C)[C@H]2CC[C@H]3/C(=C/C=C4/C[C@@H](O)C[C@H](O)C4=C)CCC[C@]23C)OC1=O` (stereo partly drawn) [Compound No. 11a, 20(R)-(tetrahydro-3-vinylidene-2-furanon-5-yl)-9,10-secopregna-5(Z), 7(E), 10(19)-triene-1(S),3(R)-diol] gave an IC50 of 50 to 150 nM.
